Literature values as cited in patent publication US8431154B2, “Oral dosage form containing a PDE 4 inhibitor as an active ingredient and polyvinylpyrrolidone as excipient” (Takeda GmbH, priority 2002, dated 2013).

Settings: as referred to for U.S. Pat. No. 5,286,494

COc1ccc(C2CNC(=O)C2)cc1OC1CCCC1 (stereo not shown) [Rolipram]
solubility: solubility is slight
